{"source": "patent US6800456B2", "about": "“Modified forms of hepatitis C NS3 protease for facilitating inhibitor screening and structural studies of protease:inhibitor complexes” (Bristol-Myers Squibb Company, priority 1999, dated 2004)", "origin": "cited, not measured here", "target": "HCV protease (Hepatitis C virus genotype 1a, UniProt P26664)", "sequence (P26664 1027-1206 limits assumed, other chains not shown)": "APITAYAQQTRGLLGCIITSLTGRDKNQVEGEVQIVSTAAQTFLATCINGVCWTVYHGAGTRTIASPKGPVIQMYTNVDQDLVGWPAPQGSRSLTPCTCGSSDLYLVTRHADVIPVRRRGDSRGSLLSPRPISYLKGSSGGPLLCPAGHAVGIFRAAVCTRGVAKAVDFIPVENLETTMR", "conditions": "Ingallinella et al., Biochemistry 37, 8906-8914 (1998)", "note": "Square brackets hold non-standard residues; d marks the D form. Cha = N[C@@H](CC1CCCCC1)C(=O)O", "data": [{"substance": "Ac-D[dE]LI[Cha]C-OH", "values": [{"measurement": "IC50", "result": 15, "unit": "nM"}]}]}
